The values below come from patent US20230277553A1, “THERAPEUTIC COMPOSITION OF CURE-PRO COMPOUNDS FOR TARGETED DEGRADATION OF BET DOMAIN PROTEINS, AND METHODS OF MAKING AND USAGE” (CORNELL UNIVERSITY, priority 2020, published 2023).

Molecules are shown by their SMILES.

This experiment has as its target BRD4 (Homo sapiens, UniProt O60885). The experiment is described as follows: CURE-PRO-mediated BRD4 degradation with VHL ligands, Western blot, MCF7 cells. Type of experiment: cell-based. On the set-up: endogenous in cells. To be noted: MCF7, 24 h, 1:1 with 8305, 100 nM-10 μM. As to the method: All cell lines were purchased from ATCC or DSMZ and grown at 37° C. with 5% CO2. Human HeLa cells were cultured in complete growth medium (Dulbecco's modified Eagle's medium (DMEM) supplemented with 10% FBS); MCF7 cells were cultured in complete growth medium (Dulbecco's modified Eagle's medium (DMEM) supplemented with 10% FBS and 0.01 mg/ml human recombinant insulin (Sigma Aldrich); Namalwa and MOLM-13 cells were cultured in complete growth medium (RPMI 1640 medium supplemented with 10% FBS); MV-4-11 were cultured in complete growth medium (Iscove's Modified Dulbecco's medium, supplemented with 10% FBS); HCT116 cells were cultured in complete growth medium (McCoy's 5a Medium supplemented with 10% FBS). For cellular degradation of BRD4 studies, cells were seeded in a 12-well plate at 70-80% confluency, allowed to attach overnight, and incubated with the indicated compounds for the indicated time. When indicated, a 15-minute pretreatment with 10 μM pomalidomide, 10 μM VHL298, 10 μM Nutlin3a, 1 μM MG-132 or 1 μM Carfilzomib was performed before the addition of CURE-PROs. For washout studies, after CURE-PRO treatment, media was aspirated and incubated with complete medium for the indicated time before lysis.
HeLa, MCF7, or HCT116 cells (2.5-3×10^6) were treated for 24 hours with the indicated compounds solubilized in DMSO. The cells were washed in ice-cold PBS and were then lysed in RIPA lysis buffer (150 mM NaCl, 5 mM EDTA, 1% NP-40, 0.5% sodium deoxycholate, 0.1% SDS, 50 mM Tris, pH 8.0.) with Roche protease inhibitor complete cocktail and phosphatase inhibitors (10 mM sodium fluoride, 10 mM sodium pyrophosphate, 1 mM sodium orthovanadate and 20 mM β-glycerophosphate). The total protein concentrations were determined by Bradford Protein Assay and 10-20 μg of protein was loaded onto 4-15% Tris-Glycine gradient gels (Biorad). After standard gel electrophoresis, the separated proteins were transferred to PVDF membrane by wet transfer. The immunoblots were then blocked for 1 hour in 5% skim milk in TBST or 5% BSA in TBST, according to manufacturer's instructions, before an overnight incubation at 4° C. with indicated antibodies and membranes. Membranes were then incubated with the appropriate horseradish peroxidase-conjugated secondary antibodies (1:5,000 dilution) for 1 h at room temperature and the bands were visualized using the Clarity Max Western ECL Substrate (Biorad) and the ChemiDoc Imaging System (Biorad). Signal was detected with ECL Western Blotting Substrate (Pierce) and X-ray film processed with a Konica SRX-101 X-ray film processor or captured by Bio-Rad's Chemidoc Imaging system.
MCF7 cells (3×10^6) were treated for 24 h with the compounds solubilized in DMSO. Compounds were added at 100 nM-10 μM. […]
For orientation: In western blotting, separated proteins are transferred to a membrane and probed.

Consider `CCNC(=O)C[C@@H]1N=C(c2ccc(Cl)cc2)c2cc(OCCCCC(=O)Nc3cccc(B(O)O)c3)ccc2-n2c(C)nnc21` [BRD-E20, (3-(5-(((4S)-6-(4-chlorophenyl)-4-(2-(ethylamino)-2-oxoethyl)-1-methyl-4H-benzo[f][1,2,4]triazolo[4,3-a][1,4]diazepin-8-yl)oxy)pentanamido)phenyl)boronic acid], for which the “BRD4 degradation, with VHL ligand 8305 (Western blot)” value was “there is degradation of BRD4”.
